# Results as given in US12662452B2, “Solid state forms of lucerastat and process for preparation thereof” (ASSIA CHEMICAL INDUSTRIES LTD., priority 2019, dated 2026).
# Key:
# [1] = Long term storage stability at 2-8° C.; type: physicochemical; settings: storage at 2-8° C.
# [2] = Exposure of the solid form to 20-80% relative humidity for 7 days at room temperature; type: physicochemical; settings: exposed to 20-80% RH for 7 days at room temperature
Substance,long term stability [1],deliquescence [2],polymorphic stability [2]
Lucerastat: L-Pyroglutamic acid,at least 1 year,does not deliquesce,polymorphically stable
Lucerastat: Salicylic acid [Lucerastat: Salicylic acid Form LC-2],at least 1 year,,
